Reference: ChEMBL document CHEMBL4706705 (Bioorg Med Chem, 2021)
Calls of active or inactive are those of the source. The calls are words filed in the database; no cut-off is given here.

Experiments:
[1] = Drug level in rat treated with osimertinib at 5 mg/kg, po by LC-MS analysis; type: ADME, organism-based; conditions: in vivo
[2] = biological target: Epidermal growth factor receptor (Homo sapiens, UniProt P00533); assay: Inhibition of wild-type EGFR (unknown origin) using biotinylated TK peptide as substrate measured after 30 mins by HTRF assay
NCI-H1975 [3] = assay: Antiproliferative activity against human NCI-H1975 cells harboring EGFR L858R/T790M double mutant measured after 72 hrs by celltiter-glo assay; type: functional, cell-based; conditions: NCI-H1975, 72 h
A-431 = assay: Cytotoxicity against human A-431 cells harboring wild-type EGFR measured after 72 hrs by celltiter-glo assay; type: cell-based; conditions: A-431, 72 h
[4] = biological target: Epidermal growth factor receptor (Homo sapiens, UniProt P00533, L858R/T790M); assay: Inhibition of recombinant human N-terminal GST-tagged EGFR T790M/L858R double mutant using biotinylated TK peptide as substrate measured after 30 mins by HTRF assay
Mus musculus [5] = assay: In vivo inhibition of EGFR T790M/L858R double mutant in nude mouse xenografted with human NCI-H1975 cells assessed as reduction in EGFR phosphorylation at 5 mg, ig measured after 6 hrs by Western blot analysis; type: functional, organism-based
[6] = Drug level in rat treated with N-(5-(4-(1-cyclopropyl-1H-indol-3-yl)pyrimidin-2-ylamino)-2-((2-(dimethylamino)ethyl)(methyl)amino)-4-methoxyphenyl)acrylamide at 5 mg/kg, po by LC-MS analysis; type: ADME, organism-based; conditions: in vivo
Mus musculus [7] = assay: In vivo inhibition of EGFR T790M/L858R double mutant in nude mouse xenografted with human NCI-H1975 cells assessed as reduction in AKT phosphorylation at 5 mg, ig measured after 6 hrs by Western blot analysis; type: functional, organism-based
NCI-H1975 [8] = assay: Antitumor activity against human NCI-H1975 cells harboring EGFR L858R/T790M double mutant xenografted in BALB/c nude mouse assessed as tumor growth inhibition at 5 mg/kg, po administered once daily for 11 days relative to control; type: functional; conditions: time 11 day
[9] = AUC (0 to infinity) in rat at 5 mg/kg, po by LC-MS analysis; type: ADME, organism-based; set-up: time infinity, route oral, dose 5 mg/kg; conditions: in vivo
[10] = Oral bioavailability in rat at 5 mg/kg by LC-MS analysis; type: ADME, organism-based; conditions: in vivo
[11] = Cmax in rat assessed as N-(5-(4-(1-cyclopropyl-1H-indol-3-yl)pyrimidin-2-ylamino)-4-methoxy-2-(methyl(2-(methylamino)ethyl)amino)phenyl)acrylamide level at 5 mg/kg, po by LC-MS analysis; type: ADME, organism-based; set-up: route oral, dose 5 mg/kg; conditions: in vivo
[12] = Tmax in rat at 5 mg/kg, po by LC-MS analysis; type: ADME, organism-based; conditions: in vivo
[13] = Toxicity in BALB/c nude mouse xenografted with human NCI-H1975 cells harboring EGFR T790M/L858R double mutant assessed as effect on body weight at 5 mg/kg, po administered once daily for 11 days measured twice daily during compound dosing; type: organism-based; conditions: in vivo, 264 h, time 11 day
[14] = AUC (0 to 8 hrs) in rat at 5 mg/kg, po by LC-MS analysis; type: ADME, organism-based; set-up: time < 8 hr, route oral, dose 5 mg/kg; conditions: in vivo
[15] = Half life in rat at 5 mg/kg, po by LC-MS analysis; type: ADME, organism-based; conditions: in vivo
[16] = MRT (0 to infinity) in rat at 5 mg/kg, po by LC-MS analysis; type: ADME, organism-based; conditions: in vivo
Mus musculus [17] = assay: In vivo inhibition of EGFR T790M/L858R double mutant in nude mouse xenografted with human NCI-H1975 cells assessed as reduction in ERK phosphorylation at 5 mg, ig measured after 6 hrs by Western blot analysis; type: functional, organism-based
[18] = Tmax in rat assessed as N-(5-(4-(1-cyclopropyl-1H-indol-3-yl)pyrimidin-2-ylamino)-4-methoxy-2-(methyl(2-(methylamino)ethyl)amino)phenyl)acrylamide level at 5 mg/kg, po by LC-MS analysis; type: ADME, organism-based; conditions: in vivo
[19] = AUC (0 to 8 hrs) in rat assessed as N-(5-(4-(1-cyclopropyl-1H-indol-3-yl)pyrimidin-2-ylamino)-4-methoxy-2-(methyl(2-(methylamino)ethyl)amino)phenyl)acrylamide level at 5 mg/kg, po by LC-MS analysis; type: ADME, organism-based; set-up: time < 8 hr, route oral, dose 5 mg/kg; conditions: in vivo
NCI-H1975 [20] = assay: Potency index, ratio of osimertinib IC50 to test compound IC50 for antiproliferative activity against human NCI-H1975 cells harboring EGFR L858R/T790M double mutant; type: functional
[21] = Cmax in rat at 5 mg/kg, po by LC-MS analysis; type: ADME, organism-based; set-up: route oral, dose 5 mg/kg; conditions: in vivo
[22] = Cmax in rat assessed as N-(5-(4-(1H-indol-3-yl)pyrimidin-2-ylamino)-2-((2-(dimethylamino)ethyl)(methyl)amino)-4-methoxyphenyl)acrylamide level at 5 mg/kg, po by LC-MS analysis; type: ADME, organism-based; set-up: route oral, dose 5 mg/kg; conditions: in vivo
[23] = MRT (0 to infinity) in rat assessed as N-(5-(4-(1H-indol-3-yl)pyrimidin-2-ylamino)-2-((2-(dimethylamino)ethyl)(methyl)amino)-4-methoxyphenyl)acrylamide level at 5 mg/kg, po by LC-MS analysis; type: ADME, organism-based; conditions: in vivo
[24] = Drug metabolism in rat assessed as N-(4-methoxy-2-(methyl(2-(methylamino)ethyl)amino)-5-(4-(1-methyl-1H-indol-3-yl)pyrimidin-2-ylamino)phenyl)acrylamide formation at 5 mg/kg, po by LC-MS analysis; type: ADME, organism-based; conditions: in vivo
[25] = Tmax in rat assessed as N-(5-(4-(1H-indol-3-yl)pyrimidin-2-ylamino)-2-((2-(dimethylamino)ethyl)(methyl)amino)-4-methoxyphenyl)acrylamide level at 5 mg/kg, po by LC-MS analysis; type: ADME, organism-based; conditions: in vivo

Sequence of Epidermal growth factor receptor (Homo sapiens, UniProt P00533, L858R/T790M) (P00533 25-1210 T790M/L858R limits assumed): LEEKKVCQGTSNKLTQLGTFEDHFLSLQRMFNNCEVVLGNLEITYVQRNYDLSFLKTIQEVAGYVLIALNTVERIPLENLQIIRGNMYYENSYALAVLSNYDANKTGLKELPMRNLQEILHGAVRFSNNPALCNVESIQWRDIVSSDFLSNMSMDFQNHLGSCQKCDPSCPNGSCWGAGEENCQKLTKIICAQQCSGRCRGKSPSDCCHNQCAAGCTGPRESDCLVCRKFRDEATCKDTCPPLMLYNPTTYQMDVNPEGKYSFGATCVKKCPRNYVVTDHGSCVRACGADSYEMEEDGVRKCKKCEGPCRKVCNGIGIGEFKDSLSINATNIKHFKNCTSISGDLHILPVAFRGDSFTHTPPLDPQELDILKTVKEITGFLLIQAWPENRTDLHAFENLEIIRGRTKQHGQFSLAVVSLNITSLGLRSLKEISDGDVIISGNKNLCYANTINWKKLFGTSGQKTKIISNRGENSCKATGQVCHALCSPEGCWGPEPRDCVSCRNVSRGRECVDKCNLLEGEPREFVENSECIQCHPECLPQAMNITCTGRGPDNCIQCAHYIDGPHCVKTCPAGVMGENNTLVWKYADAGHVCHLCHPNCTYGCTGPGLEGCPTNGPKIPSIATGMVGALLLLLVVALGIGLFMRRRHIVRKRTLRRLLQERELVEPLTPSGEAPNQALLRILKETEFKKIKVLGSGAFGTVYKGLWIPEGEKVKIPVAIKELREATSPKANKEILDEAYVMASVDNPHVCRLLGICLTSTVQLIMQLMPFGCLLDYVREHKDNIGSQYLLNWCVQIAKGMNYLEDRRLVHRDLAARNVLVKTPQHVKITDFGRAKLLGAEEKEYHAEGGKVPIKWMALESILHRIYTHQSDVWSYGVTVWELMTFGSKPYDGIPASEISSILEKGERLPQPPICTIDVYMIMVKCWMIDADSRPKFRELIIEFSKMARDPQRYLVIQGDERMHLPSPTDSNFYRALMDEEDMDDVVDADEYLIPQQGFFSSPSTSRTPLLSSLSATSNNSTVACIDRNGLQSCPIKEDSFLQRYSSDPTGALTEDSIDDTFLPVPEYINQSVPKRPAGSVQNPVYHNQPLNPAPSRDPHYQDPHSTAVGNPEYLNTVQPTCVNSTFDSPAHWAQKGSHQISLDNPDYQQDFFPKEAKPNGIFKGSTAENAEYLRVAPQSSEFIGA
Sequence of Epidermal growth factor receptor (Homo sapiens, UniProt P00533) (P00533 whole entry): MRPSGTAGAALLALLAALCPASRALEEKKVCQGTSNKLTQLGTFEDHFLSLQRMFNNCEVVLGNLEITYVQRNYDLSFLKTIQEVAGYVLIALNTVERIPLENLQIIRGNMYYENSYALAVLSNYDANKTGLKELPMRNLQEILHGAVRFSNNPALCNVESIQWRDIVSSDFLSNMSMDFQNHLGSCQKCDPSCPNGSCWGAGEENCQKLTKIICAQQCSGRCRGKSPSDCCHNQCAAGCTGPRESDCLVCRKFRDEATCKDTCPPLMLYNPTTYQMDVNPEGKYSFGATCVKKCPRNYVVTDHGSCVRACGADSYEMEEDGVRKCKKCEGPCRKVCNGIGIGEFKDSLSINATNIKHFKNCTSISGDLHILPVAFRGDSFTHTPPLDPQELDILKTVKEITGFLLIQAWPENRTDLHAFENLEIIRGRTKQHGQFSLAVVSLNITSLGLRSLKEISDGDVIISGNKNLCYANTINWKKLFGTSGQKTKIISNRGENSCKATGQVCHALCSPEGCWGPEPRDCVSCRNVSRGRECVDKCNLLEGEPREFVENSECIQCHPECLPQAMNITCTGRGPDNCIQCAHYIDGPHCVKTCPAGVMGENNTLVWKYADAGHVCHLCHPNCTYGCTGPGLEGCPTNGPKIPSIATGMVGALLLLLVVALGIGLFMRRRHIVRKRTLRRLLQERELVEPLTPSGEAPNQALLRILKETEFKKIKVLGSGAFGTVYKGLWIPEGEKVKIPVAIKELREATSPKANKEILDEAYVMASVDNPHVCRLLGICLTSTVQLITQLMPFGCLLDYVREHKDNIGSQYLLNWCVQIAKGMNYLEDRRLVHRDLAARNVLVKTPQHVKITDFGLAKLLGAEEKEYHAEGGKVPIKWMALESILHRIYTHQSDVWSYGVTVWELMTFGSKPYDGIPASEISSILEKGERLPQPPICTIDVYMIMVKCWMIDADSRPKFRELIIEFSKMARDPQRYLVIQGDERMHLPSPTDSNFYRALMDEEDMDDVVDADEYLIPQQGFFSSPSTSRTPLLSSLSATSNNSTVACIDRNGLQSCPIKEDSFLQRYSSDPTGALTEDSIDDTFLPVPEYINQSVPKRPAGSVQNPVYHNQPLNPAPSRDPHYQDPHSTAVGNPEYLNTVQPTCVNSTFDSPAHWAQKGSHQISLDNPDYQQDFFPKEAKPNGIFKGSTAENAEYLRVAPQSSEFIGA

Question: For `C=CC(=O)Nc1cc(Nc2nccc(-c3c[nH]c4ccccc34)n2)c(OC)cc1N(C)CCN(C)C`, which Drug uptake [1] is on record?
Answer: Active

Question: For `C=CC(=O)Nc1cc(Nc2nccc(-c3cn(C)c4ccccc34)n2)c(OC)cc1N(C)CCNC`, which Drug uptake [1] is on record?
Answer: Active

Question: What does the source list for `C=CC(=O)Nc1cc(Nc2nccc(-c3cn(C(C)=O)c4ccccc34)n2)c(OC)cc1N(C)CCN(C)C`?
Answer: IC50 [2]: 15.5 nM; IC50 (NCI-H1975 [3]): 15.8 nM; IC50 (A-431): 192 nM; IC50 [4]: 2.09 nM

Question: Which results are given for `C=CC(=O)Nc1cc(Nc2nccc(-c3cn(CCO)c4ccccc34)n2)c(OC)cc1N(C)CCN(C)C`?
Answer: IC50 [2]: 1.54 nM; IC50 (NCI-H1975 [3]): 2.2 nM; IC50 (A-431): 208 nM; IC50 [4]: 0.86 nM

Question: Which results are given for `C=CC(=O)Nc1cc(Nc2ncc(C(F)(F)F)c(-c3cn(C4CC4)c4ccccc34)n2)c(OC)cc1N(C)CCN(C)C`?
Answer: inhibition (Mus musculus [5]): Active; IC50 (NCI-H1975 [3]): 8.15 nM; IC50 (A-431): 59 nM

Question: Which Drug uptake [6] does the source give for `C=CC(=O)Nc1cc(Nc2nccc(-c3cn(C4CC4)c4ccccc34)n2)c(OC)cc1N(C)CCNC` here?
Answer: Active

Question: For `C=CC(=O)Nc1cc(Nc2nccc(-c3cn(C4COC4)c4ccccc34)n2)c(OC)cc1N(C)CCN(C)C`, which IC50 (A-431) is on record?
Answer: 84.3 nM

Question: With `C#CCn1cc(-c2ccnc(Nc3cc(NC(=O)C=C)c(N(C)CCN(C)C)cc3OC)n2)c2ccccc21` as the compound, how does the IC50 (NCI-H1975 [3]) read?
Answer: 6.22 nM

Question: What about the IC50 (A-431) of the same compound?
Answer: 690 nM

Question: And the IC50 [4]?
Answer: 1.01 nM

Question: What does the source list for `C=CCn1cc(-c2ccnc(Nc3cc(NC(=O)C=C)c(N(C)CCN(C)C)cc3OC)n2)c2ccccc21`?
Answer: inhibition (Mus musculus [5]): Active; IC50 [2]: 15.4 nM; IC50 (NCI-H1975 [3]): 34 nM; inhibition (Mus musculus [7]): Active; IC50 [4]: 1.51 nM

Question: Which inhibition (Mus musculus [5]) does the source give for `C=CC(=O)Nc1cc(Nc2ncc(C(F)(F)F)c(-c3cn(C4COC4)c4ccccc34)n2)c(OC)cc1N(C)CCN(C)C` here?
Answer: Active

Question: What does the source list for `C=CC(=O)Nc1cc(Nc2nccc(-c3cn(C4CC4)c4ccccc34)n2)c(OC)cc1N(C)CCN(C)C` [AUMOLERTINIB]?
Answer: inhibition in vivo at 5 mg/kg (NCI-H1975 [8]; Mus musculus, NCI-H1975, po, 264 h, read-out: TGI): 83%; inhibition (Mus musculus [5]): Active; AUC(0-inf) [9]: 5150 ng·h/mL; IC50 [2]: 2.89 nM; bioavailability [10]: 52%; Cmax [11]: 126 ng/mL; Tmax [12]: 1 h; Activity [13]: Non-Toxic; AUC(0-t) at 8 h [14]: 4580 ng·h/mL; half-life [15]: 7 h; IC50 (NCI-H1975 [3]): 1.44 nM; MRT inf [16]: 9.2 h; inhibition (Mus musculus [7]): Active; inhibition (Mus musculus [17]): Active; Tmax [18]: 6 h; AUC [19]: 2062 ng·h/mL; Ratio IC50 (NCI-H1975 [20]): 10; Cmax [21]: 528 ng/mL; IC50 (A-431): 209 nM; IC50 [4]: 0.18 nM

Question: What does the source list for `C=CC(=O)Nc1cc(Nc2nccc(-c3cn(C)c4ccccc34)n2)c(OC)cc1N(C)CCN(C)C` [OSIMERTINIB]?
Answer: TGI (NCI-H1975 [8]): 70%; Cmax [22]: 48.3 ng/mL; inhibition (Mus musculus [5]): Active; bioavailability [10]: 9%; MRT [23]: 14.1 h; Drug metabolism [24]: Metabolite_Detected; Tmax [25]: 6 h; Tmax [12]: 1 h; half-life [15]: 5.4 h; IC50 (NCI-H1975 [3]): […]; MRT inf [16]: 9 h; inhibition (Mus musculus [7]): Active; inhibition (Mus musculus [17]): Active; Cmax [21]: 81.4 ng/mL; IC50 (A-431): […]
